Data on six molecules can be found in ChEMBL document CHEMBL3046956, “Photosynthetic Electron Transport Inhibitory Activity of 2-Aralkylamino-4-methyl-6-trifluoromethyl-1, 3, 5-triazine Derivatives” (J Pestic Sci, 1999).

The first assay can be described thus: Potency index, ratio of pI50 for simazine to pI50 for test compound against photosynthetic electron transport in Spinacia oleracea (spinach) thylakoids using oxygen electrode by Boger method.
As to `Cc1nc(NCc2ccc(Cl)cc2)nc(C(F)(F)F)n1`, the Ratio worked out at 10.

In the case of `Cc1nc(NCc2ccc(C(F)(F)F)cc2)nc(C(F)(F)F)n1`, the Ratio is 10.

As to `Cc1nc(NCc2ccc([N+](=O)[O-])cc2)nc(C(F)(F)F)n1`, the Ratio was found to be 10.

Regarding `Cc1nc(NCc2ccc(F)cc2)nc(C(F)(F)F)n1`, the Ratio worked out at 10.

Regarding `Cc1nc(NCc2ccc(Br)cc2)nc(C(F)(F)F)n1`, the Ratio is 10.

A short description of a further assay: Inhibition of photosynthetic electron transport in Spinacia oleracea (spinach) thylakoids using oxygen electrode by Boger method.
For `Cc1nc(NCc2ccc(Cl)cc2)nc(C(F)(F)F)n1`, the pI50 is 6.98.

`Cc1nc(NCc2ccccc2Cl)nc(C(F)(F)F)n1` came in with a pI50 of 5.95.
